Measurements published in ChEMBL document CHEMBL4184232, “Novel (S)-1,3,4,12a-tetrahydropyrazino[2,1-c][1,4]benzodiazepine-6,12(2H,11H)-dione derivatives: Selective inhibition of MV-4-11 biphenotypic B myelomonocytic leukemia cells' growth is accompanied by reactive oxygen species overproduction and apoptosis” (Bioorg Med Chem Lett, 2018).
The source made the active and inactive calls. The calls are words filed in the database; no cut-off is given here.

Legend:
UMUC3 [1] = assay: Antiproliferative activity against human UM-UC-3 cells incubated for 72 hrs by SRB assay; type: functional, cell-based; conditions: UMUC3, 72 h
MV4-11 [2] = assay: Antiproliferative activity against human MV4-11 cells incubated for 72 hrs by SRB assay; type: functional, cell-based; conditions: MV4-11, 72 h
A2780 = assay: Antiproliferative activity against human A2780 cells incubated for 72 hrs by SRB assay; type: functional, cell-based; conditions: A2780, 72 h
HT-29 = assay: Antiproliferative activity against human HT-29 cells incubated for 72 hrs by SRB assay; type: functional, cell-based; conditions: HT-29, 72 h
BALB/3T3 = assay: Antiproliferative activity against mouse BALB/3T3 cells incubated for 72 hrs by SRB assay; type: cell-based; conditions: BALB/3T3, 72 h
A549 = assay: Antiproliferative activity against human A549 cells incubated for 72 hrs by SRB assay; type: functional, cell-based; conditions: A549, 72 h
LoVo = assay: Antiproliferative activity against human LoVo cells incubated for 72 hrs by SRB assay; type: functional, cell-based
MDA-MB-231 = assay: Antiproliferative activity against human MDA-MB-231 cells incubated for 72 hrs by SRB assay; type: functional, cell-based; conditions: MDA-MB-231, 72 h
MCF7 = assay: Antiproliferative activity against human MCF7 cells incubated for 72 hrs by SRB assay; type: functional, cell-based; conditions: MCF7, 72 h
UMUC3 [3] = assay: Induction of oxidative stress in human UM-UC-3 cells assessed as increase in ROS production at 5 to 100 uM incubated for 6 hrs by DCF-DA and propidium iodide dye based flow cytometry; type: functional, cell-based
UMUC3 [4] = assay: Induction of apoptosis in human UM-UC-3 cells at 5 to 100 uM incubated for 24 hrs by FITC-Annexin V staining based flow cytometry; type: functional, cell-based
MV4-11 [5] = assay: Induction of cell cycle arrest in human MV4-11 cells assessed as increase in accumulation at subG1 phase at 100 uM incubated for 24 hrs by propidium iodide staining based flow cytometry; type: functional
UMUC3 [6] = assay: Induction of cell cycle arrest in human UM-UC-3 cells assessed as accumulation at G2/M phase at 5 to 100 uM incubated for 24 hrs by propidium iodide staining based flow cytometry; type: functional
UMUC3 [7] = assay: Induction of cell cycle arrest in human UM-UC-3 cells assessed as accumulation at S phase at 5 to 100 uM incubated for 24 hrs by propidium iodide staining based flow cytometry; type: functional
MV4-11 [8] = assay: Induction of oxidative stress in human MV4-11 cells assessed as increase in ROS production at 5 to 100 uM incubated for 6 hrs by DCF-DA and propidium iodide dye based flow cytometry; type: functional, cell-based
MV4-11 [9] = assay: Induction of cell cycle arrest in human MV4-11 cells assessed as reduction in accumulation at G2/M phase at 100 uM incubated for 24 hrs by propidium iodide staining based flow cytometry; type: functional
UMUC3 [10] = assay: Induction of cell cycle arrest in human UM-UC-3 cells assessed as accumulation at G0/G1 phase at 5 to 100 uM incubated for 24 hrs by propidium iodide staining based flow cytometry; type: functional
MV4-11 [11] = assay: Induction of apoptosis in human MV4-11 cells assessed as increase in caspase-3/7 activity using Ac-DEVD-ACC substrate incubated for 24 hrs by fluorescence based assay; type: functional, cell-based
MV4-11 [12] = assay: Induction of cell cycle arrest in human MV4-11 cells assessed as reduction in accumulation at S phase at 100 uM incubated for 24 hrs by propidium iodide staining based flow cytometry; type: functional
UMUC3 [13] = assay: Induction of apoptosis in human UM-UC-3 cells assessed as increase in caspase-3/7 activity at 5 to 100 uM using Ac-DEVD-ACC substrate incubated for 24 hrs by fluorescence based assay; type: functional, cell-based
MV4-11 [14] = assay: Induction of apoptosis in human MV4-11 cells at 5 to 100 uM incubated for 24 hrs by FITC-Annexin V staining based flow cytometry; type: functional, cell-based
MV4-11 [15] = assay: Induction of cell cycle arrest in human MV4-11 cells assessed as increase in accumulation at G0/G1 phase at 100 uM incubated for 24 hrs by propidium iodide staining based flow cytometry; type: functional
[16] = Ratio of induction of apoptosis in human UM-UC-3 cells assessed as increase in caspase-3/7 activity at 100 uM to induction of apoptosis in human MV4-11 cells assessed as increase in caspase-3/7 activity at 100 uM; type: functional
UMUC3 [17] = assay: Induction of apoptosis in human UM-UC-3 cells assessed as increase in caspase-3/7 activity at 100 uM using Ac-DEVD-ACC substrate incubated for 24 hrs by fluorescence based assay; type: functional, cell-based
P388 = assay: Cytotoxicity against mouse P388 cells; type: functional
Calf thymus DNA = assay: Binding affinity to calf thymus DNA assessed as increase in melting temperature incubated for 18 hrs by thermal denaturation study; type: nucleic-acid assay; conditions: Bos taurus

| Structure (SMILES) | IC50 (UMUC3 [1]) | IC50 (MV4-11 [2]) | IC50 (A2780) | IC50 (HT-29) | IC50 (BALB/3T3) | IC50 (A549) | IC50 (LoVo) | IC50 (MDA-MB-231) | IC50 (MCF7) | other results |
| --- | --- | --- | --- | --- | --- | --- | --- | --- | --- | --- |
| O=C1Nc2ccccc2C(=O)N2CCN(C(=O)c3ccc(Cl)cc3)C[C@@H]12 | 18.2 µM | 32.3 µM |  |  |  |  |  |  |  |  |
| O=C1Nc2ccc(Br)cc2C(=O)N2CCN(C(=O)c3ccc(-c4ccccc4)cc3)C[C@@H]12 | 119 µM | 8.7 µM | 28.2 µM | 17.9 µM | 121 µM | 48.1 µM | 22.1 µM | 113 µM | 57 µM |  |
| O=C(c1ccc(-c2ccccc2)cc1)N1CCN2C(=O)c3ccccc3N(Cc3ccccc3)C(=O)[C@@H]2C1 | 136 µM | 10.8 µM | 62.8 µM | 144 µM | 136 µM | 106 µM | 11 µM | 41 µM | 35.8 µM | Activity (UMUC3 [3]): Dose-dependent effect; Activity (UMUC3 [4]): inactive; Activity (MV4-11 [5]): Active; Activity (UMUC3 [6]): inactive; Activity (UMUC3 [7]): inactive; Activity (MV4-11 [8]): Dose-dependent effect; Activity (MV4-11 [9]): Active; Activity (UMUC3 [10]): inactive; Activity (MV4-11 [11]): Dose-dependent effect; Activity (MV4-11 [12]): Active; Activity (UMUC3 [13]): inactive; Activity (MV4-11 [14]): Active; Activity (MV4-11 [15]): Active |
| O=C1Nc2ccccc2C(=O)N2CCN(C(=O)c3ccc(-c4ccccc4)cc3)C[C@@H]12 | 61.5 µM | 17.5 µM | 35.8 µM | 154 µM | 79.6 µM | 96.1 µM | 55 µM | 141 µM | 47.3 µM | Activity (UMUC3 [3]): Active; Activity (MV4-11 [5]): Active; Activity (UMUC3 [6]): inactive; Ratio [16]: >2; Activity (UMUC3 [7]): inactive; Activity (UMUC3 [17]): Active; Activity (MV4-11 [8]): Active; Activity (MV4-11 [9]): Active; Activity (UMUC3 [10]): inactive; Activity (MV4-11 [11]): Dose-dependent effect; Activity (MV4-11 [12]): Active; Activity (MV4-11 [15]): Active |
| O=C1Nc2ccccc2C(=O)N2CCN(C(=O)c3ccccc3)C[C@@H]12 | 10.5 µM | 27.1 µM |  |  |  |  |  |  |  |  |
| O=C(CN1C(=O)[C@@H]2CN(C(=O)c3ccc(-c4ccccc4)cc3)CCN2C(=O)c2ccccc21)OCc1ccccc1 | 96.8 µM | 44.2 µM | 28 µM | 40.1 µM | 31 µM | 34.1 µM | 23.1 µM | 30.3 µM | 147 µM |  |
| O=C1Nc2ccccc2C(=O)N2C=C(c3ccc(Br)cc3)C[C@@H]12 |  |  |  |  |  |  |  |  |  | GI50 (P388): 0.51 µM |
| O=C1Nc2ccccc2C(=O)N2CCN(C(=O)c3ccccc3I)C[C@@H]12 | 31.1 µM | 44 µM |  |  |  |  |  |  |  |  |
| O=C1Nc2ccccc2C(=O)N2CCN(C(=O)c3ccc(-c4ccccc4)cc3)C[C@H]12 | 19.6 µM | 39.6 µM |  |  |  |  |  |  |  |  |
| O=C1Nc2ccccc2C(=O)N2CCN(C(=O)c3ccc(Cl)cc3)C[C@H]12 | 22.3 µM | 36.7 µM |  |  |  |  |  |  |  |  |
| O=C1Nc2ccccc2C(=O)N2CCN(C(=O)c3ccccc3I)C[C@H]12 | 13.3 µM | 39.8 µM |  |  |  |  |  |  |  |  |
| COc1cc2c(cc1O)NC(=O)[C@@H]1C[C@@H](O)CN1C2=O |  |  |  |  |  |  |  |  |  | deltaTm (Calf thymus DNA): 3.3 K |
| CN1C(=O)[C@@H]2CN(C(=O)c3ccc(-c4ccccc4)cc3)CCN2C(=O)c2ccccc21 | 103 µM | 63.1 µM | 64.5 µM | 94.2 µM | 37 µM | 92 µM | 58.3 µM | 134 µM | 77.5 µM |  |
| O=C(O)CN1C(=O)[C@@H]2CN(C(=O)c3ccc(-c4ccccc4)cc3)CCN2C(=O)c2ccccc21 | 3 µM | 7.6 µM | 19.6 µM | 17.8 µM | 15 µM | 3.2 µM | 27.6 µM | 7.8 µM | 7.6 µM |  |
| O=C1Nc2ccccc2C(=O)N2CCN(C(=O)c3ccccc3)C[C@H]12 | 24.6 µM | 28.8 µM |  |  |  |  |  |  |  |  |
| O=C1Nc2ccc(Cl)cc2C(=O)N2CCN(C(=O)c3ccc(-c4ccccc4)cc3)C[C@@H]12 | 94.4 µM | 40.7 µM | 29.7 µM | 46.4 µM | 105 µM | 51 µM | 28.9 µM | 85.8 µM | 50.9 µM |  |
